# Data: PMC8151276, “An Integrated Approach toward NanoBRET Tracers for Analysis of GPCR Ligand Engagement” (Molecules, 2021)
# Molecular target: T1, EDNRB (Homo sapiens, UniProt P24530)
# T1 construct: purchased Promega (in-house HiBiT-GPCR construct library, NanoBRET)
# T1 sequence (P24530 27-442): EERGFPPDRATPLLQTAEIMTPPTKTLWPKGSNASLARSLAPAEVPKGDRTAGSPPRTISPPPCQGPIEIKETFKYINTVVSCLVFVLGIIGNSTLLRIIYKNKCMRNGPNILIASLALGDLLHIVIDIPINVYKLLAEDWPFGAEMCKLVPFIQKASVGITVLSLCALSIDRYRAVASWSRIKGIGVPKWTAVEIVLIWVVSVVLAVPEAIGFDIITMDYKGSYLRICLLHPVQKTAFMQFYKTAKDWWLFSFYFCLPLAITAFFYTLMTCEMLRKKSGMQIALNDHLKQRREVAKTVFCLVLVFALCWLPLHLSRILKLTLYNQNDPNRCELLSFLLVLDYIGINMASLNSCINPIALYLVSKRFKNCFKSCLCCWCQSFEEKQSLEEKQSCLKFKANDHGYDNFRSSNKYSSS
# Assay: NanoBRET screen HiBiT-EDNRB in HEK293
# Assay type: binding
# Description: Each tracer candidate was screened across the entire library of HiBiT-GPCR constructs using NanoBRET as the detection modality. As depicted in Figure 4A, the specificity of interactions was evaluated through decrease in BRET due to competitive displacement of a bound tracer by excess parental compound. Each tracer was analyzed for binding to each HiBiT-GPCR fusion in the absence and in the presence of competing parental compound. Briefly, HEK293 cells were transfected with HiBiT-GPCR constructs diluted into promoterless DNA to reduce expression and maximize translocation to the cell surface. Each tracer candidate was then screened at concentrations of 1 μM and 0.1 μM across cells expressing these fusions. Cells were treated for 1.5 h with tracer either alone or in the presence of 20 μM competing parental compound (i.e., control). BRET was measured upon addition of purified LgBiT and subsequent complementation with HiBiT genetically fused to a GPCR. The specificity of interactions was assessed through a decrease in BRET signal due to competitive displacement of the bound tracer. To further gauge the robustness of these interactions, the fold response over the control (i.e., BRETtracer/BRETcontrol) was calculated. We chose a 1.5-fold response, which translates to ≥7-fold signal over noise as the minimal threshold required to score an interaction as positive.
# HiBiT-GPCR DNA constructs were diluted in 10 mM Tris pH 8 to a final concentration of 0.01 μg/μL, arrayed in 96-well plates and stored at −20 °C. For transfection, HEK293 cells were suspended in Opti-MEM (without phenol red) supplemented with 2% fetal bovine serum (Seradigm) and 100 units/mL penicillin–streptomycin (Gibco) at a final concentration of 220,000 cells/mL and dispensed into white 96-well plates at 90 μL/well. Subsequent transfections and screens were carried using an Agilent Bravo Automated Liquid Handling Platform. First, the 96-well HiBiT DNA arrays were diluted 25-fold in Opti-MEM (without serum or phenol red) to a final concentration of 0.0004 μg/μL and 20 μL of the diluted DNAs were transferred into new 96-well plates. Next, promoterless carrier DNA (1 μg/μL) was diluted 25-fold (0.04 μg/μL) and then dispensed into the diluted arrays at 20 μL/well. Following brief mixing, Viafect transfection reagent (Promega) diluted 16-fold into Opti-MEM was dispensed into the plates at 40 μL/well. After mixing by pipetting, plates were incubated for 10 min on the pipetting station deck. The DNA-transfection reagent complexes were then added to plates containing cells. To facilitate the screen, 10 μL of DNA-transfection reagent complexes were added in duplicates to the top 4 and bottom 4 rows, resulting in two identical 48-well arrays per plate. Plates with transfected cells were incubated for 18–20 h at 37 °C/5% CO2. A screen of each tracer across the entire library using two different concentrations requires duplicate plates of transfected cells. Depending on the number of tracers being screened, transfections can be scaled up using the same ratios. The next day, for each tracer, four 20× screening solutions in tracer dilution buffer (Promega) were prepared: two duplicates at final concentration of 20 μM and two duplicates at a final concentration of 2 μM. […] The four resulting solutions were diluted 4-fold in Opti-MEM without serum or phenol red to generate 5× solutions (5 µM and 0.5 µM tracer +/− 100 μM competing compound). To screen the library, a BioTek MultiFlo FX liquid dispenser was used to dispense 22.5 µL of tracer solution to the top 4 rows and 22.5 µL tracer + competing compound solution to the 4 bottom rows. Plates were briefly mixed on an orbital shaker and incubated for 1.5 h at room temperature. […] Plates were briefly mixed on an orbital shaker and incubated for 15 min to allow complementation.
SMILES,"NanoBRET Fold Response (EDNRB, tracer 0.1μM)","NanoBRET Fold Response (EDNRB, tracer 1μM)",further results
CCOC(=O)c1cc(C#N)c(N2CCC(C(=O)NS(=O)(=O)Cc3ccccc3/C=C/C(=O)NCCNC(=O)CCc3ccc4n3[B-](F)(F)[N+]3=C(c5ccc[nH]5)C=CC3=C4)CC2)nc1C [AZD1283-1-NB590],,,"NanoBRET Fold Response (EDNRB, 0.1μM): 1.03; NanoBRET Fold Response (EDNRB, 1μM): 0.98"
N#CN=C(NCCCOc1cccc(CN2CCCCC2)c1)NCCNC(=O)CCOCCOCCOCCOCCNC(=O)CCc1ccc2n1[B-](F)(F)[N+]1=C(c3ccc[nH]3)C=CC1=C2 [Aminopotentidine-2-NB590],1.03,1.02,
CN(C)CCC=C1c2ccccc2CCc2ccc(C(=O)NCCNC(=O)CCOCCOCCOCCOCCNC(=O)CCc3ccc4n3[B-](F)(F)[N+]3=C(c5ccc[nH]5)C=CC3=C4)cc21 [Amitriptyline-a-2-NB590],,,NanoBRET Fold Response (tracer at 0.1μM): 1.04; NanoBRET Fold Response (tracer at 1μM): 1.05
CN(C)CCC=C1c2ccccc2CCc2ccc(C(=O)NCCNC(=O)CCOCCOCCOCCOCCNC(=O)CCc3ccc4n3[B-](F)(F)[N+]3=C(c5ccc[nH]5)C=CC3=C4)cc21 [Amitriptyline-b-2-NB590],,,"NanoBRET Fold Response (tracer at 1μM, listed as amitriptyline-b-2-NB590): 0.83"
CN(CCC=C1c2ccccc2CCc2ccccc21)C(=O)CCOCCOCCOCCOCCNC(=O)CCc1ccc2n1[B-](F)(F)[N+]1=C(c3ccc[nH]3)C=CC1=C2 [Amitriptyline-e-2-NB590],,,NanoBRET Fold Response (tracer at 1μM): 1.01
COc1ccc2c(n1)c(CCNC(C)=O)cn2CCNC(=O)CCc1ccc2n1[B-](F)(F)[N+]1=C(c3ccc[nH]3)C=CC1=C2 [Azamelatonin-1-NB590],,,NanoBRET Fold Response (0.1μM tracer): 0.96; NanoBRET Fold Response (1μM tracer): 0.96
COc1ccc2[nH]c(-c3ccc(CNC(=O)CCOCCOCCOCCOCCNC(=O)CCc4ccc5n4[B-](F)(F)[N+]4=C(c6ccc[nH]6)C=CC4=C5)cc3)c(CCNC(C)=O)c2n1 [AzomelatoninICO9-2-NB590],,,NanoBRET Fold Response (0.1μM tracer): 0.95; NanoBRET Fold Response (1μM tracer): 1.11
O=C(CCOCCOCCOCCOCCNC(=O)CCc1ccc2n1[B-](F)(F)[N+]1=C(c3ccc[nH]3)C=CC1=C2)NCCCN1CCN(C2=Nc3cc(Cl)ccc3Nc3ccccc32)CC1 [Clozapine-a-2-NB590],,,"NanoBRET Fold Response (EDNRB, 0.1μM tracer): 1.01; NanoBRET Fold Response (EDNRB, 1μM tracer): 0.93"
CN1CCN(C2=Nc3cc(Cl)ccc3Nc3ccc(CNC(=O)CCOCCOCCOCCOCCNC(=O)CCc4ccc5n4[B-](F)(F)[N+]4=C(c6ccc[nH]6)C=CC4=C5)cc32)CC1 [Clozapine-b-2-NB590],,,"NanoBRET Fold Response (EDNRB, 0.1μM tracer): 0.96; NanoBRET Fold Response (EDNRB, 1μM tracer): 0.99"
CN1CCN(C2=Nc3cc(Cl)ccc3N(CC(=O)NCCOCCOCCOCCOCCNC(=O)CCc3ccc4n3[B-](F)(F)[N+]3=C(c5ccc[nH]5)C=CC3=C4)c3ccccc32)CC1 [Clozapine-c-2-NB590],,,"NanoBRET Fold Response (EDNRB, 0.1μM tracer): 1.00; NanoBRET Fold Response (EDNRB, 1μM tracer): 1.06"
O=C(CCOCCOCCOCCOCCNC(=O)CCc1ccc2n1[B-](F)(F)[N+]1=C(c3ccc[nH]3)C=CC1=C2)NCCCN1CCN(C2=Nc3ccccc3Oc3ccc(Cl)cc32)CC1 [Loxapine-a-2-NB590],1.05,0.89,
COc1ccccc1N1CCN(CCCCN2C(=O)c3ccc(CNC(=O)CCOCCOCCOCCOCCNC(=O)CCc4ccc5n4[B-](F)(F)[N+]4=C(c6ccc[nH]6)C=CC4=C5)cc3C2=O)CC1 [NAN-190-2-NB590],1.05,0.99,
COc1ccccc1N1CCN(CCCCN2C(=O)c3ccc(CNC(=O)CCOCCNC(=O)c4ccc(CNC(=O)CCc5ccc6n5[B-](F)(F)[N+]5=C(c7ccc[nH]7)C=CC5=C6)cc4)cc3C2=O)CC1 [NAN-190-3-NB590],0.95,1.00,
O=C(CCc1ccc2n1[B-](F)(F)[N+]1=C(c3ccc[nH]3)C=CC1=C2)NCc1ccc(C(=O)NCCOCCC(=O)N[C@@H]2CC[C@@]3(O)[C@H]4Cc5ccc(O)c6c5[C@@]3(CCN4CC3CC3)[C@H]2O6)cc1 [Naltrexone-3-NB590],0.94,1.06,
Cc1cc2c(s1)Nc1ccccc1N=C2N1CCN(CCCNC(=O)CCOCCOCCOCCOCCNC(=O)CCc2ccc3n2[B-](F)(F)[N+]2=C(c4ccc[nH]4)C=CC2=C3)CC1 [Olanzapine-a-2-NB590],1.00,0.89,
O=C(CCc1ccc2n1[B-](F)(F)[N+]1=C(c3ccc[nH]3)C=CC1=C2)NCc1ccc(C(=O)NCCOCCOCCNCC(O)COc2cccc3ccccc23)cc1 (stereo not shown) [Propranolol-3-NB590],,,"NanoBRET Fold Response (EDNRB, 0.1μM): 1.05; NanoBRET Fold Response (EDNRB, 1μM): 1.01"
O=C(CCc1ccc2n1[B-](F)(F)[N+]1=C(c3ccc[nH]3)C=CC1=C2)NCCOCCOCCNC(=O)OCCOCCN1CCN(C2=Nc3ccccc3Sc3ccccc32)CC1 [Quetiapine-a-2-NB590],0.97,0.99,
Cc1nc2n(c(=O)c1CCN1CCC(c3noc4cc(F)ccc34)CC1)CCCC2OC(=O)NCCOCCOCCOCCOCCNC(=O)CCc1ccc2n1[B-](F)(F)[N+]1=C(c3ccc[nH]3)C=CC1=C2 (stereo not shown) [Risperidone-2-NB590],1.02,0.97,
CC(C)N(CC[C@H](c1ccccc1)c1cc(CCNC(=O)CCOCCOCCOCCOCCNC(=O)CCc2ccc3n2[B-](F)(F)[N+]2=C(c4ccc[nH]4)C=CC2=C3)ccc1O)C(C)C [Tolterodine-2-NB590],0.97,1.03,
CC(C)N(CC[C@H](c1ccccc1)c1cc(CCNC(=O)c2ccc(CNC(=O)CCc3ccc4n3[B-](F)(F)[N+]3=C(c5ccc[nH]5)C=CC3=C4)cc2)ccc1O)C(C)C [Tolterodine-BZ-NB590],0.96,0.98,
CCCn1c(=O)c2[nH]c(-c3ccc(OCC(=O)NCCNC(=O)CCOCCNC(=O)c4ccc(CNC(=O)CCc5ccc6n5[B-](F)(F)[N+]5=C(c7ccc[nH]7)C=CC5=C6)cc4)cc3)nc2n(CCC)c1=O [XAC-3-NB590],0.92,1.18,
